Test system: tumor cell cluster composed of mouse insulinoma cells (MIN6)
Assay: Imaging of tumor cell cluster composed of MIN6 cells (real time laser scanning confocal microscope)
Type: cell-based
Procedure: A culture solution prepared by suspending MIN6 cells at a proportion of 10×10^4 cells/mL was dropped in an amount of 10 μL on a glass cover slip, then, allowed to adhere to the glass surface, and 3 mL of the culture solution was added and cultured. The half quantity of the culture solution was changed every three days.
Cryopreserved MIN6 cells (cells donated from Professor Miyazaki Junichi of Osaka University and cultured 5 to 8 passages) were subjected to culture according to an ordinary method, and cultured 7 to 9 passages which were used in experiments. The half amount of the culture solution was changed every two days.
NaCl 120.0 mM, KCl 4.75 mM, KH2 PO4 1.19 mM, MgSO4.7H2O 1.19 mM, CaCl2.2H2O 1 mM, NaHCO3 5.02 mM, D-Glucose 5.6 mM, HEPES 10 mM (adjusted to pH 7.35 with 1M NaOH). For inhibiting entrance and elimination of fluorescently labeled glucose via a gap junction/hemichannel, 0.1 mM Carbenoxolone (SIGMA #C4790) was added. The HEPES solution for image acquisition was used as a solution for preparing a 2-PBLG solution and as a solution for preparing a 2-PBLG/2-TRLG solution and 2-PBLG/2-NBDLG/2-TRLG solution.
A glass cover slip wherein MIN6 cells had been cultured was transferred into a HEPES solution for image acquisition in a perfusion chamber set on a universal stage (Leica 11600234) on a confocal laser scanning microscope (TCS SP5 available from Leica), and adhered gently and tightly to the glass surface at the bottom of the chamber. […] Further, there is an excellent effect that in the space sandwiched by the metal guides, the perfusion solution flows smoothly as a laminar flow and quick solution exchange is possible.
A perfusion solution feeding system is equipped with one 60 mL cylinder for a control solution and five 10 mL cylinders for agent feeding, which can be switched as needed by a magnetic valve to allow perfusion. In experiments according to the present invention, a 5.6 mM glucose-containing HEPES solution for image acquisition was administered using the 60 mL cylinder and a mixed solution of 2-PBLG/2-NBDLG/2-TRLG, a mixed solution of 2-PBDG/2-TRLG, or a mixed solution of 2-PBLG/2-TRLG was administered using one of the five 10 mL cylinders. As described below, to avoid generation of bubbles in the perfusion chamber, both the solutions were heated beforehand, combined in one tube before being introduced into the perfusion chamber, the flow rate thereof being controlled by a flow rate controller, then, heated again by an inline heater and fed to the perfusion chamber on the confocal microscope.
A laser scan confocal microscope (manufactured by Leica, TCS-SP5 system, microscope body is DMI6000 CS trino electromotive inverted microscope) was used in conventional mode. Regarding laser used, a 405 nm diode laser was used for excitation of 2-PBLG and 2-PBDG, excitation of a mixed solution of 2-PBLG (or 2-PBDG) and 2-TRLG with a single light source, or live staining of nucleus by DAPI. The irradiation intensity was appropriately adjusted in accordance with the fluorescent pigment used so as to obtain sufficient observation intensity by an acoustic optical polarization element (Acoustic Optical Tunable Filter, AOTF). 2-NBDLG and 2-TRLG were excited by 488 nm Argon laser. The scan speed was 200 Hz or 400 Hz.
In fluorescence detection, a photomultiplier detector (PMT) 1 was used for detection of blue fluorescence by 2-PBDG or 2-PBLG and images were acquired in a wavelength detection range set at 415-580 nm in the case of detection of bicolor of 2-PBLG/2-TRLG and in a wavelength detection range set at 415-500 nm in the case of detection of tricolor of 2-PBLG/2-NBDLG/2-TRLG. For detection of green fluorescence by 2-NBDLG, PMT2 (called green channel, the same shall apply hereinafter) was used in a wavelength detection range of 500-580 nm. For detection of red fluorescence by 2-TRLG, PMT3 (called red channel, the same shall apply hereinafter) was used in a wavelength detection range of 580-740 nm. […]

[1] = mixed solution 100 μM 2-PBLG and 20 μM 2-TRLG

Structure (SMILES): O=C(NC1C(O)OC(CO)[C@H](O)C1O)c1cc2cc(F)c(O)c(F)c2oc1=O (stereo partly drawn) [2-PBLG, 2-Deoxy-2-((6,8-difluoro-7-hydroxycoumarin-3-yl)carboxamido)-L-glucose]
- fluorescence of cells in the cell cluster 8 minutes after initiation of washout [1]: scattered around the outer edge of the center of a cell cluster
- fluorescence of cells in the cell cluster 12 minutes after initiation of washout [1]: still multiple cells showing the strongly positive signal
- fluorescence of cells in the cell cluster 2 minutes after initiation of washout (mixed solution 100 μM 2-PBLG and 20 μM 2-TRLG, administered 5 minutes, MIN6 cluster day 13): extremely intense blue fluorescence is emitted from some cells
- fluorescence of cells in the cancer cell cluster 12 minutes after completion of administration (mixed solution 100 μM 2-PBLG, 100 μM 2-NBDLG, 20 μM 2-TRLG): emit blue fluorescence by 2-PBLG continuously
- fluorescence of cells in the cancer cell cluster 8 minutes after completion of administration (mixed solution 100 μM 2-PBLG, 100 μM 2-NBDLG, 20 μM 2-TRLG, MIN6 cluster day 13): intense blue fluorescence by 2-PBLG is maintained continuously
